Here are results for one compound from paper doi:10.1101/2022.06.02.494630v1 (biorxiv, 2022).

One assay concerns the target PfPHB1 (Plasmodium falciparum, UniProt Q8IBC3). The assay is described as follows: biochemical.
Another assay addresses PfPHB2 (Plasmodium falciparum, UniProt Q8IJP8). The assay is described as follows: biochemical.

Sequence of PfPHB1 (Q8IBC3 1-272): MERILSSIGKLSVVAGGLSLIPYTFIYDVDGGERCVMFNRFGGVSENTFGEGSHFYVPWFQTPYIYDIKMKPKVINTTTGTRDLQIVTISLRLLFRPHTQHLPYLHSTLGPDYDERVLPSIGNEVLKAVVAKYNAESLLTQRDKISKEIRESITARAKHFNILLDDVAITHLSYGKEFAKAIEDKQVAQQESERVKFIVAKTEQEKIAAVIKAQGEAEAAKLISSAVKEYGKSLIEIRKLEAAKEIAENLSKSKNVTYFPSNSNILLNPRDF
Sequence of PfPHB2 (Q8IJP8 1-304): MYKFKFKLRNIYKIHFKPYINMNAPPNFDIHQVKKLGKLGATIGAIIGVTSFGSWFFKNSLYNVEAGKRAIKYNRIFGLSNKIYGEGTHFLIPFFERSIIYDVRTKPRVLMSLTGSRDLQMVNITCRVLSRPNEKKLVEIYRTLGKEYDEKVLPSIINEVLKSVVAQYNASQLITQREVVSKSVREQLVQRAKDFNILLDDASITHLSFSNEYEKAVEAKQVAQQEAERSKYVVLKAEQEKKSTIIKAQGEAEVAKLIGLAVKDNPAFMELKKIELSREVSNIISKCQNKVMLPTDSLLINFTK

A word on the Kd: it is the concentration at which binding is half-saturated. A low value points to a tighter complex. Regarding `COc1ccc([C@@]23Oc4cc(OC)cc(OC)c4[C@]2(O)[C@H](O)[C@H](C(=O)N(C)C)[C@H]3c2ccccc2)cc1` [Roc-A], the Kd at PfPHB1 was found to be 1370 ± 600 nM; at PfPHB2, 683 ± 21 nM.
